{
  "source": "patent US20260284082A1",
  "about": "“TARGETING THE PANX1-P2Y2R-TRPV4 PATHWAY TO TREAT LUNG ISCHEMIA-REPERFUSION INJURY” (UNIVERSITY OF VIRGINIA PATENT FOUNDATION, priority 2023, published 2026)",
  "key": {"[1]": {"system": "TRPV4EC channels", "test": "TRPV4 sparklet activity in human PMVECs exposed to acute HR", "assay_type": "cell-based", "design": "dose or concentration left out as unconfirmed", "conditions": "1 h hypoxia + 10 min reoxygenation", "procedure": "TRPV4 sparklets were assessed as increases in fluorescence relative to baseline fluorescence, obtained by averaging 10 quiescent images prior to stimulation. TRPV4 Ca^2+ sparklets were assessed based on previously established methods.^9,11 Average TRPV4 sparklet activity is defined as NPO, where N is the number of TRPV4 channels per site and PO is the open-state probability of the channel. NPO was calculated using the Single Channel Search module of Clampfit. quantal amplitudes derived from all-points histograms (0.3 AF/F0 for Fluo-4-loaded Pas),^12 and the following equation: NPO=(Tlevel1+2Tlevel2+3Tlevel3+4Tlevel4)/Ttotal, where T represents the dwell time at each quantal level and Ttotal is the total recording duration. […]\nCa^2+ imaging in human and mouse PMVECs was performed using an Andor Dragonfly 505 spinning-disk confocal imaging system with Borealis illumination and an Integrated Laser Engine solid-state laser source (Andor Technology, Belfast, UK), coupled with a Leica Dmi8 inverted microscope (Leica) and 63× objective (NA 1.47)^13 Images were acquired at 30 frames per second using Fusion 2.3 (Oxford Instruments, Belfast, UK) and an electron-multiplying CCD camera (iXon888). Calbryte 520 AM was excited at 488 nm, and emitted fluorescence was captured using a 525/50 bandpass emission filter. […]"}, "[2]": {"system": "endothelium of human small PAs", "test": "Baseline endothelial Ca2+ signaling in freshly isolated small PAs from human lungs exposed to HR", "assay_type": "cell-based", "conditions": "ARC; human small PAs (~50 μm)", "procedure": "Ca^2+ imaging in Pas: Ca^2+ imaging in small Pas was performed as previously described.8 Fourth-order, small (~50 μm diameter) Pas (see FIG. 1B) were dissected from left lungs in cold HEPES-buffered physiological salt solution (HEPES-PSS; 10 mM HEPES, 134 mM NaCl, 6 mM KCl, 1 mM MgCl2 hexahydrate, 2 mM CaCl2) dihydrate, and 7 mM dextrose; pH adjusted to 7.4 using 1 M NaOH). Ca^2+ imaging studies were performed in en face preparations of small Pas incubated with Fluo-4 AM (10 μM) and pluronic acid (0.04%) at 37° C. for 10 minutes. For studies after sham or lung IR surgery, small Pas were immediately dissected out after the indicated reperfusion time and incubated en face with Fluo-4 AM. For acute hypoxia-reoxygenation (HR) exposure, small Pas were washed with PBS, after which serum free/glucose-free endothelial cell medium was added. Small Pas were placed in a humidified, sealed hypoxia chamber (Billups-Rothenberg, San Diego, CA), which was subsequently flushed with 95% nitrogen/5% CO2 for 20 minutes and placed in a 37° C. incubator to initiate hypoxia. After 1 hour of hypoxia, the chamber was opened to terminate hypoxia. […] Fluo-4 was excited using a 488-nm solid-state laser, and emitted fluorescence was captured using a 525/36-nm band-pass filter. […] Baseline Ca^2+ signaling activity was recorded in the absence of CPA. […]"}},
  "data": [
    {"smiles": "Cc1ccc2c(c1)C=Cc1cc(C)ccc1C2c1cn(Cc2ccc(C(=O)Nc3nn[nH]n3)o2)c(=O)[nH]c1=S", "note": "[ARC, AR-C 118925XX]", "values": [
      {"measurement": "HR-induced increase in TRPV4EC sparklets", "setting": "[1]", "value": "blocked"},
      {"measurement": "HR-induced increase in endothelial Ca2+ signaling", "setting": "[2]", "value": "inhibited"}
    ]}
  ]
}
